Assays:
succinate oxidase = experiment: Mitochondrial electron-transport activity determined as succinate oxidase activity in ubiquinone-depleted enzyme preparations; assay type: biochemical; conditions: level of addition 10 n moles; ubiquinone-depleted enzyme preparation; control 19.34 ± 1.42
Method: ^(1) Ubiquinonedepleted enzyme preparations were prepared in
accordance with Lester and Fleischer (Biochem. Biophys. Acta., 47,358-377
1961). The electrontransport activity was determined based on succinate

SRS-A production = experiment: Inhibition of SRS-A production and release in sensitized guinea-pig lung fragments (egg albumin antigen); assay type: cell-based, quinea-pig; conditions: lung fragments sensitized with egg albumin, compound dissolved in ethanol or dimethyl sulfoxide, read-out: Inhibitory effect on SRS-A production (%); for inhibition at 10 µM: concentration 10 μM
Method: Further, we investigated the effect of the present compound (I) on the production and release of the slow reacting substance of anaphylaxis (hereinafter, SRS-A) which has been mentioned as a main factor in asthma. Thus, in accordance with the method of Orange and Moore (J. Immunol., 116, 392-397, 1976), the present compound (I) was added to a quinea-pig lung fragments sensitized with egg albumin as the antigen, and the amount of SRS-A produced and released as a consequence was assayed by the method of Brocklehurst (J. Physiol., 151, 416-435, 1960).
^(1) The compound was added as dissolved in ethanol or dimethyl
^(2) The inhibitory effect on SRSA production was expressed as the %
inhibition of production and release of SRSA.

Succinate oxidase activity [oxygen consumption per mg enzyme protein during 1 minute (n atoms oxygen)] (succinate oxidase) [n atoms oxygen]	SMILES	inhibition at 10 µM (SRS-A production) [%]	inhibition at 1 µM (SRS-A production; concentration 1 μM) [%]
112.05	COC1=C(OC)C(=O)C(CCCCCCCCCCCCCCCCCC(=O)O)=C(C)C1=O [R:H, n:17, 6-(17-carboxyheptadecyl)-2,3-dimethoxy-5-methyl-1,4-benzoquinone]	82.8 ± 4.4	–
96.05	COC1=C(OC)C(=O)C(CCCCCCCCCCCCC(=O)O)=C(C)C1=O [R:H, n:12, 6-(12-carboxydodecyl)-2,3-dimethoxy-5-methyl-1,4-benzoquinone]	87.2 ± 5.5	60 ± 3.3
–	COC1=C(OC)C(=O)C(CCCCCCCCCCCCCCCCCCCCCC(=O)O)=C(C)C1=O [R:H, n:21, 6-(21-carboxyheneicosyl)-2,3-dimethoxy-5-methyl-1,4-benzoquinone]	80.5 ± 0.5	–
146.10	COC(=O)CCCCCCCCCCCCC1=C(C)C(=O)C(OC)=C(OC)C1=O [n:12 R:CH3, 2,3-dimethoxy-6-(12-methoxycarbonyldodecyl)-5-methyl-1,4-benzoquinone]	–	–
